Columns and labels:
Settings in all cases: 72 h
Caco-2 [1] = assay: drug sensitivity score (DSS) for viability; higher = more toxic; extreme values may be limits of the assay
Vero E6 [2] = assay: as above
Calu-3 [3] = assay: as above
U2OS [4] = assay: as above
Caco-2 [5] = assay: cell viability relative to DMSO; higher = less toxic
Vero E6 [6] = assay: as above
Calu-3 [7] = assay: as above
U2OS [8] = assay: as above
Caco-2 [9] = assay: relative viability EC50 (midpoint between 100% and the lowest measured viability); higher = less toxic
Vero E6 [10] = assay: as above
Calu-3 [11] = assay: as above
U2OS [12] = assay: as above
HepG2 [13] = assay: drug sensitivity score (DSS) for viability; higher = more toxic; extreme values may be limits of the assay
HepG2 [14] = assay: cell viability relative to DMSO; higher = less toxic

SMILES	drug sensitivity score (Caco-2 [1])	drug sensitivity score (Vero E6 [2])	drug sensitivity score (Calu-3 [3])	drug sensitivity score (U2OS [4])	cell viability (Caco-2 [5]; 1 nM) [%]	cell viability (Caco-2 [5]; 10 nM) [%]	cell viability (Caco-2 [5]; 100 nM) [%]	cell viability (Caco-2 [5]; 1000 nM) [%]	cell viability (Caco-2 [5]; 10000 nM) [%]	cell viability (Vero E6 [6]; 1 nM) [%]	cell viability (Vero E6 [6]; 10 nM) [%]	cell viability (Vero E6 [6]; 100 nM) [%]	cell viability (Vero E6 [6]; 1000 nM) [%]	cell viability (Vero E6 [6]; 10000 nM) [%]	cell viability (Calu-3 [7]; 1 nM) [%]	cell viability (Calu-3 [7]; 10 nM) [%]	cell viability (Calu-3 [7]; 100 nM) [%]	cell viability (Calu-3 [7]; 1000 nM) [%]	cell viability (Calu-3 [7]; 10000 nM) [%]	cell viability (U2OS [8]; 1 nM) [%]	cell viability (U2OS [8]; 10 nM) [%]	cell viability (U2OS [8]; 100 nM) [%]	cell viability (U2OS [8]; 1000 nM) [%]	cell viability (U2OS [8]; 10000 nM) [%]	relative viability EC50 (Caco-2 [9]) [µM]	relative viability EC50 (Vero E6 [10]) [µM]	relative viability EC50 (Calu-3 [11]) [µM]	relative viability EC50 (U2OS [12]) [µM]	drug sensitivity score (HepG2 [13])	cell viability (HepG2 [14]; 1 nM) [%]	cell viability (HepG2 [14]; 10 nM) [%]	cell viability (HepG2 [14]; 100 nM) [%]	cell viability (HepG2 [14]; 1000 nM) [%]	cell viability (HepG2 [14]; 10000 nM) [%]
CN(C(=O)c1c(O)c2ccccc2n(C)c1=O)c1ccccc1 [roquinimex]	0	0	0	0	88.7	95.5	82.2	92.5	99.5	103	93.6	98.2	97.1	105	85.8	96.1	96	95.4	108	96.5	101	94.1	93.8	101	> 10	> 10	> 10	> 10						
C[C@H](N/C(=N/C#N)Nc1cccc2ncccc12)c1ccccc1	0		0	0	101	112	104	97.8	98.6						97	102	107	103	94.8	108	102	99.1	109	101	> 10		> 10	> 10						
O=c1[nH]cc(F)c(=O)[nH]1 [5-fluorouracil]	1.4	2.5	0	2.4	80	103	85.7	93.4	79.6	102	95.7	106	95.8	62.9	93.5	99.2	98.1	101	90.5	100	97.4	97.6	95.6	64	> 10		> 10		4.7	103	93	103	83.7	54.4
COc1cc(C(=O)OCCCN2CCCN(CCCOC(=O)c3cc(OC)c(OC)c(OC)c3)CC2)cc(OC)c1OC [dilazep]	1.5	1.8	0	0.2	91.6	98.3	97.1	97.1	73.6	98.5	97.3	100	88.6	79.1	112	102	93.9	103	88.1	98.9	101	99.6	103	84.6		> 10	> 10	> 10	3.3	104	89.5	102	82.4	70.4
COc1cc(N)c(Cl)cc1C(=O)OCCCN1CCCCC1	0	0	0	0	116	108	104	98.3	107	106	104	107	104	99.7	106	102	93.5	114	104	101	94.9	98.1	104	102	> 10	> 10	> 10	> 10						
COc1ccc2[nH]c([S@@+]([O-])Cc3ncc(C)c(OC)c3C)nc2c1 [esomeprazole]	0.3	0	0	0	97.2	101	101	102	83.1	93.8	108	100	97.8	107	98.3	108	110	96.9	103	102	102	95	102	95.8	> 10	> 10	> 10	> 10						
O=[N+]([O-])c1cc([N+](=O)[O-])c(/C=C/c2ccc(Cl)c(Cl)c2)cc1/C=C/c1ccc(Cl)c(Cl)c1	0.1	0	0	0	91.4	97.2	89	102	86.3	103	105	101	102	97.3	100	98.5	87.2	97.6	95.9	68.7	102	94.8	110	94.1	> 10	> 10	> 10	> 10						
Nc1ccc(S(=O)(=O)Nc2ncccn2)cc1 [sulfadiazine]			0.1																															
CCOC(=O)c1cc(C#N)c(N2CCC(C(=O)NS(=O)(=O)Cc3ccccc3)CC2)nc1C [AZD1283]	0	0	0	0	98.4	94.3	101	95.5	97	103	106	100	104	99.5	96.2	104	112	97.2	104	95.7	100	105	91.2	101	> 10	> 10	> 10	> 10						
O=C(Nc1cccc2cccnc12)c1ccc(N2C(=O)[C@@H]3[C@H](C2=O)[C@H]2C=C[C@@H]3C2)cc1 [exo-IWR-1]	0	0	0	0	92.2	100	103	102	106	94.2	93.1	92.2	97.1	106	87.4	103	107	103	102	99.1	104	99.6	108	104					0.5	105	99.3	103	87.9	92
Cc1cc2c(cc1C(F)(F)F)N(C(=O)Nc1ccc(Oc3cccnc3C)nc1)CC2	0		0.4	0	97.3	101	104	97.1	91.2						96.4	98.8	96	104	80.6	101	106	95.8	105	95.4	> 10		> 10	> 10						
CCCCC1CCC(c2nc(-c3ccncc3)no2)CC1 (stereo not drawn)	0				106	98.8	104	98.7	103																> 10									
CCCCCCC[N+](CC)(CC)CCCCc1ccc(Cl)cc1 [clofilium]	1.9	0	0	0	114	106	101	108	54.4	89	102	95.2	104	116	83.9	106	91.8	93.6	87.7	95.7	95.6	97.7	93	92.2		> 10	> 10	> 10	0.6	94.1	124	135	122	72.5
COc1ccccc1OC(=O)C(C)c1ccc(CC(C)C)cc1 (stereo not drawn) [metoxibutropate]	0	0	0	0	95.5	104	90.2	93.1	96.7	99.2	102	96.9	98.7	100	118	105	104	97.7	107	101	103	97.8	99.3	100	> 10	> 10	> 10	> 10						
Cn1c([N+](=O)[O-])cnc1COC(N)=O [ronidazole]	0	0	0	0	89.2	93.5	107	95.2	101	98	103	93.7	98.7	108	95.6	98.6	95.3	92	103	96.4	97.9	99.8	97.9	99.5	> 10	> 10	> 10	> 10						
Nn1cnc2cc3ccccc3cc2c1=O [centazolone]		0	0																										0					
CC(=O)CC(=O)O [lithium-acetoacetate]	0	0	0	0	94	104	101	109	99.3	103	104	103	97.7	105	98.2	101	98.9	99	100	98.6	101	98.1	102	96.8	> 10	> 10	> 10	> 10						
CC1=C(/C=C/C(C)=C/C=C/C(C)=C/CO)C(C)(C)CCC1 [retinol]	0		0	0	108	89.4	96.7	97.8	93.2						90.6	103	101	91.7	99.5	102	96.9	102	96.8	103	> 10		> 10	> 10						
CCCCCCCCCCCCCCOc1ccc(C(=O)O)o1 [KD-023]	1.1	0.8		0	95	92.9	105	92.5	82.5	102	102	100	99	78.4						97.4	97.4	101	95.8	103	> 10	> 10		> 10	1	99.8	103	103	105	69.9

Reference: the supplement of paper PMC13380429
